This note sets out measurements from patent publication US20250230165A1, “HETEROCYCLIC COMPOUNDS FOR USE IN THE TREATMENT OF CANCER” (ARTIOS PHARMA LIMITED, priority 2021, published 2025).

The test concerns the target T1, Human Polθ polymerase domain (aa1820-2590) (Homo sapiens, UniProt O75417).
T1 construct: Human Polθ polymerase domain (aa1820-2590) was expressed in E. coli; made in house; host or cells: E. coli
T1 sequence (O75417 1820-2590): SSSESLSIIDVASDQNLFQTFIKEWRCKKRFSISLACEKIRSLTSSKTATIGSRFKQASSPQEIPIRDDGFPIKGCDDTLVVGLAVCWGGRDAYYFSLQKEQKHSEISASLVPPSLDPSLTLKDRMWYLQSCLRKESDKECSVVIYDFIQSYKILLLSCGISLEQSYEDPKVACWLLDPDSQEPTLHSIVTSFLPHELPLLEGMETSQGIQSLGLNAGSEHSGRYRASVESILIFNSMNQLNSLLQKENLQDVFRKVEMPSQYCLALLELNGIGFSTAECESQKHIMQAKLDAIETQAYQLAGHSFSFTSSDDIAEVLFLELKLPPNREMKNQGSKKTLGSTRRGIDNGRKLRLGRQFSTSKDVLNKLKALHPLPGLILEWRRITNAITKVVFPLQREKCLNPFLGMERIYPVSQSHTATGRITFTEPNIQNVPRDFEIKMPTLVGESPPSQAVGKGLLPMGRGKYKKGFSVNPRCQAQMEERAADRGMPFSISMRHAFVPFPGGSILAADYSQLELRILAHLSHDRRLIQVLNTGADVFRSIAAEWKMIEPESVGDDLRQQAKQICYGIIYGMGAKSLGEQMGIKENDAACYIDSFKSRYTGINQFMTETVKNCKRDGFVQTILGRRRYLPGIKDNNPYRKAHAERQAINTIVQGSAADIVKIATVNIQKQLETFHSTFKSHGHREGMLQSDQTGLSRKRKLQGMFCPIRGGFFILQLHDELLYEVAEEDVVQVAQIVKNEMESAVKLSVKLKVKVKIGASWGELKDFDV
The test is described as follows: Polθ Polymerase Domain Kinact/KI Assay (PicoGreen). It is filed as biochemical. Particulars: 0.8 nM Polθ, 100 nM DNA substrate, kobs vs [I] fit for 2-step covalent inhibitor. A digest of the protocol: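 Kinact and KI derive from fitting kobs versus [I], where kobs were fitted from EDTA-stopped PicoGreen time courses (up to 60 min) in Tris pH 7.5 buffer with 1% DMSO, 0.8 nM enzyme, 100 nM DNA and […].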
In turn, `C=CC(=O)N1CC2(C1)[C@H](C)N(CCN1C[C@H]3CC(=O)N(c4cc(C(F)(F)F)cc(C)n4)[C@@H]3C(=O)N(C)c3cccc(F)c31)C[C@H]1COCCN12` (single isomer, unassigned) [Example 8] displayed a Kinact/Kl of 2e+06 M⁻¹ s⁻¹. With `C=CC(=O)N1CC(NCCCN2C[C@H]3CC(=O)N(c4cc(C(F)(F)F)cc(C)n4)[C@@H]3C(=O)N(C)c3cccc(F)c32)C1` [Example 70, (3aR,11aS)-5-(3-((1-acryloylazetidin-3-yl)amino)propyl)-6-fluoro-10-methyl-1-(6-methyl-4-(trifluoromethyl)pyridin-2-yl)-1,3a,4,5,10,11a-hexahydro-2H-benzo[b]pyrrolo[2,3-f][1,4]diazocine-2,11(3H)-dione] the figure was 970000 M⁻¹ s⁻¹; with `C=CC(=O)N1CCOC[C@H]1c1ccc(CN2C[C@H]3CC(=O)N(c4cc(C(F)(F)F)cc(C)n4)[C@@H]3C(=O)N(C)c3cccc(C)c32)cc1` (racemic) [Example 323a, (3aR,11aS)-5-(4-((R/S)-4-acryloyl-morpholin-3-yl)-benzyl)-6,10-di-methyl-1-(6-meth-yl-4-(trifluorometh-yl)pyridin-2-yl)-1,3a,4,5,10,11a-hexahydro-2H-benzo[b]pyrrolo [2,3-f][1,4]diazo-cine-2,11(3H)-dione], 640000 M⁻¹ s⁻¹; with `C=CC(=O)N1CC(c2nc(CN3C[C@H]4CC(=O)N(c5cc(C(F)(F)F)cc(C)n5)[C@@H]4C(=O)N(C)c4cccc(F)c43)no2)C1` [Example 101, (3aR,11aS)-5-((5-(1-acryloylazetidin-3-yl)-1,2,4-oxadiazol-3-yl)methyl)-6-fluoro-10-methyl-1-(6-methyl-4-(trifluoromethyl)pyridin-2-yl)-1,3a,4,5,10,11a-hexahydro-2H-benzo[b]pyrrolo[2,3-f][1,4]diazocine-2,11(3H)-dione], 1.47e+06 M⁻¹ s⁻¹. For `C=CC(=O)NC12CC(CN3C[C@H]4CC(=O)N(c5cc(C(F)(F)F)cc(C)n5)[C@@H]4C(=O)N(C)c4cccc(C)c43)(C1)C2` [Example 174, N-(3-(((3aR,11aS)-6,10-dimethyl-1-(6-methyl-4-(tri-fluoromethyl)pyr-idin-2-yl)-2,11-dioxo-1,2,3,3a,4, 10,11,11a-octa-hydro-5H-benzo [b]pyrrolo[2,3-f] [1,4]diazocin-5-yl)methyl)bicyclo [1.1.1]pentan-1-yl)acrylamide] the value was 1.08e+06 M⁻¹ s⁻¹. In the case of `C=CC(=O)N1CCn2cc(CN3C[C@H]4CC(=O)N(c5cc(C(F)(F)F)cc(C)n5)[C@@H]4C(=O)N(C)c4cccc(Cl)c43)nc2C1C` (single isomer, unassigned) [Example 142a], the Kinact/Kl is 1.75e+06 M⁻¹ s⁻¹. With `C=CC(=O)N1CCN(CCN2C[C@H]3CC(=O)N(c4cc(C(F)(F)F)cc(C)n4)[C@@H]3C(=O)N(C)c3cccc(C)c32)CC1` [Example 256, (3aR,11aS)-5-(2-(4-acryloylpiperazin-1-yl)ethyl)-6,10-dimethyl-1-(6-methyl-4-(trifluoromethyl)pyridin-2-yl)-1,3a,4,5,10,11a-hexahydro-2H-benzo[b]pyrrolo[2,3-f][1,4]diazocine-2,11(3H)-dione] the figure was 1.11e+06 M⁻¹ s⁻¹; with `C=CC(=O)N1CC(c2nc(CN3C[C@H]4CC(=O)N(c5cc(C(F)(F)F)cc(C)n5)[C@@H]4C(=O)N(C)c4cccc(F)c43)c[nH]2)C1` [Example 122, (3aR,11aS)-5-((2-(1-acryloylazetidin-3-yl)-1H-imidazol-4-yl)methyl)-6-fluoro-10-methyl-1-(6-methyl-4-(trifluoromethyl)pyridin-2-yl)-1,3a,4,5,10,11a-hexahydro-2H-benzo[b]pyrrolo[2,3-f][1,4]diazocine-2,11(3H)-dione], 610000 M⁻¹ s⁻¹; with `C=CC(=O)N1CC2CN(CCN3C[C@H]4CC(=O)N(c5cc(C(F)(F)F)cc(C)n5)[C@@H]4C(=O)N(C)c4cccc(F)c43)CC(C1)O2` [Example 5, (3aR,11aS)-5-(2-(7-acryloyl-9-oxa-3,7-diazabicyclo[3.3.1]nonan-3-yl)ethyl)-6-fluoro-10-methyl-1-(6-methyl-4-(trifluoromethyl)pyridin-2-yl)-1,3a,4,5,10,11a-hexahydro-2H-benzo[b]pyrrolo[2,3-f][1,4]diazocine-2,11(3H)-dione], 140000 M⁻¹ s⁻¹.

Compound `C=CC(=O)N1CCOC[C@H]1c1ccc(CN2C[C@H]3CC(=O)N(c4cc(C(F)(F)F)cc(C)n4)[C@@H]3C(=O)N(C)c3cccc(C)c32)cn1` (racemic) [Example 324a, (3aR,11aS)-5-((6-((R/S)-4-acryloyl-morpholin-3-yl)pyr-idin-3-yl)methyl)-6,10-dimethyl-1-(6-methyl-4-(trifluoro-methyl)pyridin-2-yl)-1,3a,4,5,10, 11a-hexahydro-2H-benzo[b]pyrrolo [2,3-f][1,4]diazo-cine-2,11(3H)-dione] displayed a Kinact/Kl of 150000 M⁻¹ s⁻¹. With `C=CC(=O)N1Cc2nc(CN3C[C@H]4CC(=O)N(c5cc(C(F)(F)F)cc(C)n5)[C@@H]4C(=O)N(C)c4cccc(C)c43)ccc2[C@H]1CC#N` (racemic) [Example 319b, 2-((R/S)-6-acryloyl-2-(((3aR,11aS)-6,10-dimethyl-1-(6-meth-yl-4-(trifluorometh-yl)pyridin-2-yl)-2,11-dioxo-1,2,3,3a, 4,10,11,11a-octa-hydro-5H-benzo[b]pyrrolo[2,3-f][1,4]diazocin-5-yl)meth-yl)-6,7-dihydro-5H-pyrrolo[3,4-b]pyr-idin-5-yl)acetonitrile] the figure was 1.66e+06 M⁻¹ s⁻¹; with `C=CC(=O)N1CCN(c2nc(CN3C[C@H]4CC(=O)N(c5cc(C(F)(F)F)cc(C)n5)[C@@H]4C(=O)N(C)c4cccc(F)c43)c[nH]2)CC1` [Example 125, (3aR,11aS)-5-((2-(4-acryloylpiperazin-1-yl)-1H-imidazol-4-yl)methyl)-6-fluoro-10-methyl-1-(6-methyl-4-(trifluoromethyl)pyridin-2-yl)-1,3a,4,5,10,11a-hexahydro-2H-benzo[b]pyrrolo[2,3-f][1,4]diazocine-2,11(3H)-dione], 2.53e+06 M⁻¹ s⁻¹. For `C#CC(=O)N1CCn2nc(CN3C[C@H]4CC(=O)N(c5cc(C(F)(F)F)cc(C)n5)[C@@H]4C(=O)N(C)c4cccc(C)c43)cc2C1` [Example 198, (3aR,11aS)-6,10-dimethyl-1-(6-methyl-4-(trifluoro-methyl)pyridin-2-yl)-5-((5-propiolo-yl-4,5,6,7-tetra-hydropyrazolo-[1,5-a]pyrazin-2-yl)methyl)-1,3a,4,5, 10,11a-hexahydro-2H-benzo[b]pyr-rolo[2,3-f][1,4] diazocine-2,11(3H)-dione] the value was 700000 M⁻¹ s⁻¹. For `C=CC(=O)N1CC(N(C)CC(O)CN2C[C@H]3CC(=O)N(c4cc(C(F)(F)F)cc(C)n4)[C@@H]3C(=O)N(C)c3cccc(Cl)c32)C1` (single isomer, unassigned) [Example 69] the value was 1.09e+06 M⁻¹ s⁻¹. With `C=C(CN(C)C)C(=O)N1CC(CCN2C[C@H]3CC(=O)N(c4cc(C(F)(F)F)cc(C)n4)[C@@H]3C(=O)N(C)c3cccc(Cl)c32)C1` [Example 298, (3aR,11aS)-6-chloro-5-(2-(1-(2-((dimethylamino)methyl)acryloyl)azetidin-3-yl)ethyl)-10-methyl-1-(6-methyl-4-(trifluoromethyl)pyridin-2-yl)-1,3a,4,5,10,11a-hexahydro-2H-benzo[b]pyrrolo[2,3-f][1,4]diazocine-2,11(3H)-dione], the Kinact/Kl stood at 3.64e+06 M⁻¹ s⁻¹. For `C=C(CN(C)C)C(=O)N1CCN(C(=O)CCN2C[C@H]3CC(=O)N(c4cc(C(F)(F)F)cc(C)n4)[C@@H]3C(=O)N(C)c3cccc(Cl)c32)CC1` [Example 86, (3aR,11aS)-6-chloro-5-(3-(4-(2-((dimethylamino)methyl)acryloyl)piperazin-1-yl)-3-oxopropyl)-10-methyl-1-(6-methyl-4-(trifluoromethyl)pyridin-2-yl)-1,3a,4,5,10,11a-hexahydro-2H-benzo[b]pyrrolo[2,3-f][1,4]diazocine-2,11(3H)-dione] the value was 3.49e+06 M⁻¹ s⁻¹; for `C=CC(=O)N1CC2(C1)N[C@H](C)CN(CCN1C[C@H]3CC(=O)N(c4cc(C(F)(F)F)cc(C)n4)[C@@H]3C(=O)N(C)c3cccc(F)c31)C2C` (mixture of isomers) [Example 37b, (3aR,11aS)-5-(2-((6R,9R/S)-2-acryloyl-6,9-dimethyl-2,5,8-triazaspiro[3.5]nonan-8-yl)ethyl)-6-fluoro-10-methyl-1-(6-methyl-4-(trifluoromethyl)pyridin-2-yl)-1,3a,4,5,10,11a-hexahydro-2H-benzo[b]pyrrolo[2,3-f][1,4]diazocine-2,11(3H)-dione], 580000 M⁻¹ s⁻¹.
